Source: article PMC12120661, “Synthesis and Biological Evaluation of 4‑(4-Nitrophenyl)‑1H‑1,2,3-triazole Derivatives as Antitrypanosomal Agents” (ACS Omega, 2025)

What was measured:
[1] = test system: T. cruzi nitroreductase (TcNTR72); assay: T. cruzi nitroreductase activity assay (NADH oxidation); settings: 50 μM NADH, 25 °C; for Kobs (12.5 μM): compound 12.5 μM; for Kobs (25 μM): compound 25 μM; for Kobs (50 μM): compound 50 μM; for Kobs (100 μM): compound 100 μM
Method: TcNTR72 was expressed, purified, and its activity was tested following previously described protocol. […] This mixture was incubated at room temperature for 5 min. […] All assays were performed in triplicate for each measurement and for each concentration. Benznidazole was used as a control.

[2] = test system: trypomastigotes forms of T. cruzi Tulahuen strain (LacZ); parameters: method as in de Andrade et al., 2015; settings: previous work of the group; ref de Andrade et al., 2015; read-out: IC50 against trypomastigotes forms of T. cruzi Tulahuen strain (LacZ); cited from earlier work
[3] = test system: T. cruzi intracellular amastigotes (Colombian strain) in C2C12 cells; assay: Antiamastigote activity, infection index, treatment after infection, C2C12; type: cell-based, Trypanosoma cruzi; settings: for IC50: Trypanosoma cruzi, infected C2C12, 48 h treatment after infection; for selective index C2C12: CC50/IC50, C2C12, treatment after infection
Method: (§1) Considering the dynamics of T. cruzi infection in humans, characterized by an increase in parasitic load through intracellular replication of amastigote forms in various cell types, we evaluated the action of the compounds in LLC-MK2 (epithelial cells) and C2C12 (myoblasts) using an in vitro infection model.
(§2) The antiamastigote activity was assessed by calculating the infection index, defined as the percentage of infected cells multiplied by the mean number of amastigotes per cell. Noninfected control cells were subjected to identical treatment conditions to evaluate the cytotoxicity of the compounds (CC50). This comprehensive approach allowed for the simultaneous assessment of antiparasitic efficacy and compound-induced cytotoxicity, offering valuable insights into their therapeutic potential.
(§3) In the infection plate each well was added 50 μL of cold methanol for cell fixation. The plate was kept at −20 °C for 1 h. After this period, the wells were blocked with 50 μL of PBS 1X-Saponin 0.1 + 10% rabbit serum for 10 min at room temperature. Following, the wells were washed four times with PBS 1X-Saponin 0.1% and 50 μL of the same solution was added to each well, incubating for 20 min at room temperature. Subsequently, 50 μL of PBS 1X-Saponin 0.1% + anti-T. cruzi antibody (from serum of infected patients) at a 1:10 dilution was added, and the plate was incubated for 1 h at room temperature. The wells were then washed four times with PBS 1X-Saponin 0.1%, and 50 μL of PBS 1X-Saponin 0.1% + antihuman IgG-FITC at a 1:200 dilution was added. The plate was incubated wrapped in aluminum foil for 30 min. After incubation, the plate was washed four times with PBS 1X-Saponin 0.1%, and 50 μL of PBS 1X was added to all wells after the final wash. For nuclear staining, the plate, already stained with FITC, was washed three times with PBS 1X, and 200 μL of PBS 1X + 1 μL of iodide per well was added. After staining, the wells were washed again, and 100 μL of PBS 1X was added before imaging.
(§4) The plate was analyzed in the EVOS fluorescence microscope for image acquisition and fluorescence identification, in which the anti-IgG-FITC stains parasite′s membrane in green and iodide stains nuclei in red. On each condition of treatment, 200 cells of 3 wells were evaluated as to the number of infected cells and the number of parasites per cell for calculating the index of infection the IC50 were calculated by Nonlinear regression curves (log[inhibitor] vs normalized response). Selective index was calculated by dividing CC50 per IC50.

[4] = Cellular viability (MTT), noninfected LLC-MK2; type: cell-based; settings: rhesus monkey, noninfected LLC-MK2 epithelial cells; noninfected LLC-MK2, Table 2 (treatment after infection); read-out: CC50 non infected MK2
Method: as §2
(§5) Following 24 h of treatment, 10 μL of 5 mg/mL of MTT (3-(4,5-dimethylthiazol-2-yl)-2,5-diphenyltetrazolium bromide) was added per well, and absorbance was evaluated in the Eon Microplate Spectrophotometer Reader (BioTek) at 570–690 nm. CC50 were calculated by Nonlinear regression curves (log[inhibitor] vs normalized response).

[5] = test system: T. cruzi Tulahuen CL2 β-galactosidase strain; assay: Antitrypanosomal screening, anti-T. cruzi (trypomastigote) activity, CPRG photometric method; type: cell-based; settings: Trypanosoma cruzi; Tulahuen CL2 β-galactosidase strain on MRC-5SV2; values in parentheses mean ± SEM of two experiments
Method: A preliminary assay was conducted to evaluate the analogs’ in vitro cytotoxicity and antitrypanosomatid activity against T. cruzi Tulahuen strain (Table ). […] However, the promising results of analog 16 encouraged us to conduct more in-depth studies on this compound.
Anti-parasitic assays were conducted following established protocols outlined in earlier literature. In brief, for assessing anti-T. cruzi activity, the Tulahuen CL2 β-galactosidase strain (nifurtimox-sensitive) was employed and maintained on MRC-5SV2 (human lung fibroblast). A total of 4 × 10^3 cells were infected with 4 × 10^4 parasites per well. The synthesized analogs were tested at concentrations ranging from 1.56 to 50.00 μM. Parasite burdens were evaluated after the addition of the substrate CPRG (chlorophenol red ß-D-galactopyranoside). The change in color was measured spectrophotometrically at 540 nm after 4 h of incubation at 37°C. In all assays, parasite growth was compared to untreated-infected controls (100% growth) and noninfected controls (0% growth). Results were expressed as the percentage of parasite reduction at different drug concentrations and used to calculate IC50 values from the dose–response curves.

[6] = test system: T. cruzi intracellular amastigotes (Colombian strain) in LLC-MK2 cells; assay: Antiamastigote activity, infection index, treatment after infection, LLC-MK2; type: cell-based, Trypanosoma cruzi; settings: for IC50: infected LLC-MK2, 48 h treatment after infection; for selective index MK2: CC50/IC50, LLC-MK2, treatment after infection; for selectivity indices: stated in text across LLC-MK2 and C2C12, treatment after infection
Method: as §1, §2, §3, §4

[7] = Cellular viability (MTT), noninfected C2C12; type: cell-based, murine; settings: mouse, noninfected C2C12 myoblast cells; noninfected C2C12, Table 2 (treatment after infection); read-out: CC50 non infected C2C12
Method: as §2
(§6) The LLC-MK2 (ATCC CCL-7) cell line of epithelial origin, and C2C12 (ATCC CRL-1772) myoblast cells, derived from murine myoblasts, were maintained in Roswell Park Memorial Institute-RPMI 1640 medium supplemented with L-glutamine, 25 mM HEPES (Corning), 10% (v/v) fetal bovine serum (FBS), and gentamicin (1 μL/mL). […] Once the cells reached 80% confluence, were detached using Trypsin-EDTA and prepared in the subsequent experiments.
as §5

trans-sialidase (TcTS) = settings: literature, cited from earlier work; for inhibition of trans-sialidase: in words
Solubility observations = settings: 2.000 to 0.062 mM, 0.5% DMSO
[8] = Cytotoxicity against primary mouse macrophages; type: cell-based; settings: mouse, primary mouse macrophages (PMM)
Text: 1 In Vitro Anti- T. cruzi (Trypomastigote) Activity and Cytotoxicity Assessment of Hit 1 Analogs ^a | column: PMM CC50 (μM)

[9] = test system: T. cruzi amastigotes (Colombian strain) in pre-exposed LLC-MK2 cells; assay: Antiamastigote activity in pretreated (pre-exposed) LLC-MK2 cells; type: cell-based, Trypanosoma cruzi; settings: for selective index MK2: CC50/IC50, LLC-MK2 treated previously to infection; for IC50: Trypanosoma cruzi, LLC-MK2 treated previously to infection
Method: (§7) After 24 h, the culture medium was removed and replaced with fresh medium containing cell-derived trypomastigotes (MOI 20:1, Colombian strain) overnight.
as §3, §4

LLC-MK2 cells = assay: Cellular viability (MTT), noninfected LLC-MK2; type: cell-based; settings: noninfected LLC-MK2, Table 3 (treatment previously to infection); read-out: CC50 non infected MK2
Method: as §2, §5

[10] = Preliminary cytotoxicity assay, resazurin; type: cell-based; settings: MRC-5SV2 lung fibroblast cells; human MRC-5 cell line, 3 days incubation
Method: MRC-5SV2 cell cytotoxicity was assessed following the methodology outlined in earlier literature. Briefly, cells at a concentration of 1.5 × 10^5 cells/mL were cultured with compound dilutions at 37 °C and 5% CO2. Cell growth was compared to untreated-control wells (100% cell growth) and medium-control wells (0% cell growth). After 3 days of incubation, cell viability was fluorometrically assessed following the addition of 50-μL resazurin per well. Fluorescence was measured after 4 h at 37 °C (λex 550 nm, λem 590 nm). The results were expressed as the percentage reduction in cell growth/viability compared to control wells, and an IC50 value was determined.

[11] = test system: T. cruzi amastigotes (Colombian strain) in pre-exposed C2C12 cells; assay: Antiamastigote activity in pretreated (pre-exposed) C2C12 cells; type: cell-based, Trypanosoma cruzi; settings: for selective index C2C12: CC50/IC50, C2C12 treated previously to infection; for IC50: Trypanosoma cruzi, C2C12 treated previously to infection
Method: as §7, §3, §4

C2C12 cells = assay: Cellular viability (MTT), noninfected C2C12; type: cell-based, murine; settings: noninfected C2C12, Table 3 (treatment previously to infection); read-out: CC50 non infected C2C12
Method: as §2, §6, §5

[12] = molecular target: T1, Recombinant trans-sialidase from T. cruzi (TcTS) (Trypanosoma cruzi, UniProt Q26966); assay: Continuous fluorimetric TcTS inhibition (MuNANA hydrolysis); type: biochemical
T1 construct: A truncated recombinant TcTs, containing the enzyme’s catalytic N-terminal domain, was used; made in house
T1 sequence (Q26966 entry or part of it): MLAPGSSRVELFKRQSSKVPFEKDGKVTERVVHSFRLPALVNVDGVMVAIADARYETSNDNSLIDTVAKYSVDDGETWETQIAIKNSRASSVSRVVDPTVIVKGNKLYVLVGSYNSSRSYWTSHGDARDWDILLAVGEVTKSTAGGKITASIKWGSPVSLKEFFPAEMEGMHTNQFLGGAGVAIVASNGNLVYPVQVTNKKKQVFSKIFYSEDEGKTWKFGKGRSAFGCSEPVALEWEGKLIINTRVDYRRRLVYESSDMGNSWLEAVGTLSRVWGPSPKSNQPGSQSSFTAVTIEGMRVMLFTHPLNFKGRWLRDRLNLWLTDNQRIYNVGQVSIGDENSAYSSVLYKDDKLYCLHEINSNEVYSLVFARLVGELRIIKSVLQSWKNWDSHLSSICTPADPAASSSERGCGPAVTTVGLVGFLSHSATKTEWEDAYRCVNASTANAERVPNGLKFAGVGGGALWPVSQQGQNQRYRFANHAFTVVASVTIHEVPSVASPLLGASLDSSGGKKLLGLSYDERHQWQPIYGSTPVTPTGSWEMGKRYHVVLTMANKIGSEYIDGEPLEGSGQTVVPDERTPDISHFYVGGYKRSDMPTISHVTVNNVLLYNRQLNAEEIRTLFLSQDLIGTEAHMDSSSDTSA
Method: Although the main reaction catalyzed by TcTS involves the transfer of host sialic acids to β-galactose acceptors found in parasite surface mucins, a residual hydrolase activity is also present and was utilized to screen a small library of TcTS inhibitors.
A truncated recombinant TcTs, containing the enzyme’s catalytic N-terminal domain, was used. The production and purification of TcTs were performed following previously described protocols. The continuous fluorimetric TcTS assay was conducted in 96-well plates containing phosphate buffer solution at pH 7.4 (25 μL), recombinant enzyme solution (25 μL) and inhibitor solution (25 μL). […] The enzyme activity was measured by calculating the slope of the curve for each concentration of the test compound. Pyridoxal phosphate was used as the inhibition control at a concentration of 1 mM. The IC50 value was determined using the log(inhibitor) vs normalized response–variable slope model in GraphPad Prism version 10.0.0 for Windows, GraphPad Software, Boston, Massachusetts (www.graphpad.com).

[13] = previous work of the group; cited from earlier work
[14] = Trypanosoma cruzi, LLC-MK2, 48 h

## O=C(Cn1ccnc1[N+](=O)[O-])NCc1ccccc1 [BZN, reference compound]
[1]
  Kobs (12.5 μM): 0.13 ± 0.01 s^–1
  Kobs (25 μM): 0.17 ± 0.05 s^–1
  Kobs (50 μM): 0.32 ± 0.04 s^–1
  Kobs (100 μM): 0.23 ± 0.07 s^–1
[2]
  IC50: 34 µM
[3]
  IC50: 6 ± 1 µM
[4]
  CC50 at 24 h: 46.9 µM
[5]
  IC50: 1.64 µM
[6]; [14]
  IC50: 1.43 ± 0.1 µM
[6]
  IC50: 1.4 ± 0.1 µM
[7]
  CC50 at 24 h: 74.4 µM

## CC(=O)N[C@H]1[C@H]([C@H](O)[C@H](O)CO)OC(C(=O)O)=C[C@@H]1N=C(N)N [Zanamivir]
trans-sialidase (TcTS)
  inhibition of trans-sialidase: weak inhibition of trans-sialidase in the millimolar range

## CC(=O)NC1C(O)C(F)C(F)(C(=O)O)OC1C(O)C(O)CO (centres unmarked) [2,3-difluorosialic acid]
trans-sialidase (TcTS); irreversible inhibitors
  Ki: 20000 µM

## CCOC(=O)C1=C[C@@H](OC(CC)CC)[C@H](NC(C)=O)[C@@H](N)C1 [Oseltamivir]
trans-sialidase (TcTS)
  inhibition of trans-sialidase: weak inhibition of trans-sialidase in the millimolar range

## OC[C@@H](O)[C@@H](O[C@@H]1O[C@H](CO)[C@H](O)[C@H](O)[C@H]1O)[C@H](O)[C@@H](O)CO [lactitol]
trans-sialidase (TcTS); acceptor analog
  IC50: 570 µM

## CC(=O)OC[C@H]1O[C@@H](n2cc(-c3ccc([N+](=O)[O-])cc3)nn2)[C@H](OC(C)=O)[C@@H](OC(C)=O)[C@H]1OC(C)=O [Compound 16, (2R,3S,4S,5R,6R)-2-(Acetoxymethyl)-6-(4-(4-nitrophenyl)-1H-1,2,3-triazol-1-yl)tetrahydro-2H-pyran-3,4,5-triyl Triacetate]
Solubility observations
  solubility in the TcTS assay medium: low solubility in the medium
[8]
  CC50: > 50 µM
[1]
  Kobs (12.5 μM): 0.02 ± 0.02 s^–1
  Kobs (25 μM): 0.06 ± 0.01 s^–1
  Kobs (50 μM): 0.07 ± 0.01 s^–1
  Kobs (100 μM): 0.07 ± 0.01 s^–1
[9]
  selective index MK2: 124.9
  IC50: 0.6 ± 0.2 µM
[3]
  selective index C2C12: 621.1
  IC50: 0.13 ± 0.01 µM
LLC-MK2 cells
  CC50: > 80 µM
[4]
  CC50 at 24 h: > 80 µM
[10]
  CC50 at 3 days: > 50 µM
[5]
  IC50: 6 µM
[11]
  selective index C2C12: 141.5
  IC50: 0.56 ± 0.09 µM
[6]
  selective index MK2: 484.3
  selectivity indices: exceeding 400
[6]; [14]
  IC50: 0.16 ± 0.02 µM
[7]
  CC50 at 24 h: > 80 µM
C2C12 cells
  CC50: > 80 µM

## O=[N+]([O-])c1ccc(-c2cn([C@@H]3O[C@H](CO)[C@H](O)[C@H](O)[C@H]3O)nn2)cc1 [Compound 19, (2R,3R,4S,5R,6R)-2-(Hydroxymethyl)-6-(4-(4-nitrophenyl)-1H-1,2,3-triazol-1-yl)tetrahydro-2H-pyran-3,4,5-triol]
[12]
  IC50: 1100 ± 100 µM
[1]
  Kobs (12.5 μM): 0.03 ± 0.01 s^–1
  Kobs (25 μM): 0.03 ± 0.01 s^–1
  Kobs (50 μM): 0.04 ± 0.02 s^–1
  Kobs (100 μM): 0.04 ± 0.01 s^–1
[9]
  selective index MK2: 39.4
  IC50: 2 ± 0.2 µM
[3]
  selective index C2C12: 677.4
  IC50: 0.11 ± 0.02 µM
LLC-MK2 cells
  CC50: > 80 µM
[4]
  CC50 at 24 h: > 80 µM
[11]
  selective index C2C12: 115.6
  IC50: 0.7 ± 0.3 µM
[6]
  selective index MK2: 782.8
  selectivity indices: exceeding 400
[6]; [14]
  IC50: 0.1 ± 0.04 µM
[7]
  CC50 at 24 h: > 80 µM
C2C12 cells
  CC50: > 80 µM

## O=C(Cn1cc(-c2ccc([N+](=O)[O-])cc2)nn1)NCc1ccccc1 [hit 1]
[2]
  IC50: 7 µM
[13]
  solubility in water: low solubility in water
